Results published in US11040106B2, “Conjugates of kinase inhibitors and cyanine dyes” (priority 2018, dated 2021).
Entries after “also recorded” stand apart in the source; their conditions may differ.

What was measured:
[1] = system: U87-MG cells; experiment: Cytotoxicity (cell viability) on U87-MG cells; type: cell-based
[2] = system: K562 leukemia cells; experiment: Cytotoxicity (cell viability) on K562 cells; type: cell-based
[3] = system: HEPG2 cells; experiment: Cytotoxicity (cell viability, MTT assay) on HEPG2 cells; type: cell-based; conditions: HEPG2 cells (liver cancer)
Method: Approximately 5000 HEPG2 cells/well were seeded on 96 well plate containing 10% fetal bovine serum. Cells were allowed to adhere overnight before test compounds were added. Stock solutions of 1a (0.02 M in DMSO) were diluted with protein-free medium (PFHM-II) to make desired final concentrations varying from 0.01 to 80 μM. The cells were incubated with the desired concentration for 48 h. The cell viabilities were calculated using MTT assay. Briefly, 20 μL of 3-(4,5-dimethylthiazol-2-yl)-2,5-diphenyltetrazolium bromide MTT (5 mg/mL, in Hank's balanced salt solution) were added and the cells were incubated for an additional 3.5 h. The medium was then removed, and […] of DMSO was added to dissolve the formazan crystal formed. The optical density of each well (at 570 nm) was measured with a BioTek Synergy 4 Microplate Reader. The viability of each cell line in response to the treatment with tested compounds was calculated as: % dead cells=100−(OD treated/OD control)×100.

[4] = system: MDA-MB-231 “triple negative” breast cancer cells; experiment: Cytotoxicity (cell viability) on MDA-MB-231 cells; type: cell-based; conditions: MDA-MB-231 (breast cancer cells)
[5] = system: U87-MG (Glioblastoma) cells as compared to HUVEC (normal cells); experiment: Uptake by U87-MG cells as compared to HUVEC; type: cell-based, human
[6] = system: HUVEC; experiment: Light and dark toxicity on HUVEC; type: cell-based; conditions: 1 h incubation, 10 minutes irradiation
From the text: HUVEC cells are non-carcinogentic, “normal” […] cells.

[7] = system: U87-MG (Glioblastoma) cells; experiment: Light and dark toxicity on U87-MG cells; type: cell-based, human

| SMILES | cytotoxicity compared with parent dye, parent kinase inhibitor (and their mixture) ([1]; U87-MG cells (glioblastoma)) | cytotoxicity compared with ICG-COOH conjugate ([1]; U87-MG, 24 and 48 h) | cytotoxicity compared with parent dye, parent kinase inhibitor (and their mixture) [2] | cytotoxicity compared with parent dye, parent kinase inhibitor (and their mixture) [3] | cytotoxicity compared with parent dye, parent kinase inhibitor (and their mixture) [4] | uptake by U87-MG cells compared to HUVEC [5] | phototoxic effect on normal cells [6] | light versus dark toxicity ([7]; 1, 2, 4 and 6 h incubation, 10 mins irradiation) | light versus dark toxicity ([7]; 1 h incubation, irradiation 5, 10, 15, 20 minutes) |
| --- | --- | --- | --- | --- | --- | --- | --- | --- | --- |
| CC(=O)c1c(C)c2cnc(Nc3ccc(N4CCN(C(=O)CCCCCN5/C(=C/C=C6\CCCC(/C=C/C7=[N+](CCCCCC(=O)[O-])c8ccccc8C7(C)C)=C6Cl)C(C)(C)c6ccccc65)CC4)cn3)nc2n(C2CCCC2)c1=O [Compound 1b] | more found to be toxic than individual 1, b or a combination of 1+b; also recorded: significantly more toxic than the parent dye, the parent kinase inhibitor, or a mixture of the dye and kinase inhibitor | more toxic than ICG-COOH-b | more found to be toxic than individual 1, b or a combination of 1+b; also recorded: significantly more toxic than the parent dye, the parent kinase inhibitor, or a mixture of the dye and kinase inhibitor | more found to be toxic than individual 1, b or a combination of 1+b; also recorded: significantly more toxic than the parent dye, the parent kinase inhibitor, or a mixture of the dye and kinase inhibitor | more toxic than 1 and b; also recorded: more toxic than b or 1 | localizes more in U87-MG cells than HUVEC cells |  |  |  |
| CC1(C)C(=CC=C2CCCC(C=CC3=[N+](CCCCCC(=O)O)c4ccc(I)cc4C3(C)C)=C2Cl)N(CCCCCC(=O)O)c2ccc(I)cc21 [Compound 2aa] |  |  |  |  |  | the cancer cells uptake more of the compound | does not significantly kill normal cells | Light toxicity was more than light in every case | kills the cells more in light than in dark |
